# Structures can show the parent of a compound that is named as a salt.
# Legend:
# [1] = target: T1, human mGlu 5a receptor (Homo sapiens, UniProt P41594); assay: [3H]MPEP competition binding on membranes of EBNA cells transfected with human mGlu 5a receptor; conditions: read-out: Ki (mGluR5)
# T1 construct: expressed in transfected cells; host or cells: EBNA cells (transient transfection); cell membrane homogenates
# Protocol: For binding experiments, cDNA encoding human mGlu 5a receptor was transiently transfected into EBNA cells using a procedure described by Schlaeger and Christensen [Cyto-technology 15:1–13 (1998)]. Cell membrane homogenates were stored at −80° C. until the day of assay where upon they were thawed and resuspended and polytronised in 15 mM Tris-HCl, 120 mM NaCl, 100 mM KCl, 25 mM CaCl2, 25 mM MgCl2 binding buffer at pH 7.4 to a final assay concentration of 20 μg protein/well.
# Saturation isotherms were determined by addition of twelve [^3H]MPEP concentrations (0.04–100 nM) to these membranes (in a total volume of 200 μl) for 1 h at 4° C. Competition experiments were performed with a fixed concentration of [^3H]MPEP (2 nM) and IC50 values of test compounds evaluated using 11 concentrations (0.3–10,000 nM). Incubations were performed for 1 h at 4° C.
# At the end of the incubation, membranes were filtered onto unifilter (96-well white microplate with bonded GF/C filter preincubated 1 h in 0.1% PEI in wash buffer, Packard BioScience, Meriden, Conn.) with a Filtermate 96 harvester (Packard BioScience) and washed 3 times with cold 50 mM Tris-HCl, pH 7.4 buffer. Nonspecific binding was measured in the presence of 10 μM MPEP. The radioactivity on the filter was counted (3 min) on a Packard Top-count microplate scintillation counter with quenching correction after addition of 45 μl of microscint 40 (Canberra Packard S. A., Zürich, Switzerland) and shaking for 20 min.
# The inhibition (antagonists) curves were fitted with a four parameter logistic equation giving IC50, and Hill coefficient using an iterative non linear curve fitting software (Xcel fit).
# The Ki value is defined by the following formula: Ki=IC50/[1+L/Kd] in which the IC50 values are those concentrations of the compounds tested which cause 50% inhibition of the competing radioligand ([^3H]MPEP). L is the concentration of radioligand used in the binding experiment and the Kd value of the radioligand is empirically determined for each batch of membranes prepared.
# T1 sequence (P41594 21-1180 isoform P41594-2 limits assumed): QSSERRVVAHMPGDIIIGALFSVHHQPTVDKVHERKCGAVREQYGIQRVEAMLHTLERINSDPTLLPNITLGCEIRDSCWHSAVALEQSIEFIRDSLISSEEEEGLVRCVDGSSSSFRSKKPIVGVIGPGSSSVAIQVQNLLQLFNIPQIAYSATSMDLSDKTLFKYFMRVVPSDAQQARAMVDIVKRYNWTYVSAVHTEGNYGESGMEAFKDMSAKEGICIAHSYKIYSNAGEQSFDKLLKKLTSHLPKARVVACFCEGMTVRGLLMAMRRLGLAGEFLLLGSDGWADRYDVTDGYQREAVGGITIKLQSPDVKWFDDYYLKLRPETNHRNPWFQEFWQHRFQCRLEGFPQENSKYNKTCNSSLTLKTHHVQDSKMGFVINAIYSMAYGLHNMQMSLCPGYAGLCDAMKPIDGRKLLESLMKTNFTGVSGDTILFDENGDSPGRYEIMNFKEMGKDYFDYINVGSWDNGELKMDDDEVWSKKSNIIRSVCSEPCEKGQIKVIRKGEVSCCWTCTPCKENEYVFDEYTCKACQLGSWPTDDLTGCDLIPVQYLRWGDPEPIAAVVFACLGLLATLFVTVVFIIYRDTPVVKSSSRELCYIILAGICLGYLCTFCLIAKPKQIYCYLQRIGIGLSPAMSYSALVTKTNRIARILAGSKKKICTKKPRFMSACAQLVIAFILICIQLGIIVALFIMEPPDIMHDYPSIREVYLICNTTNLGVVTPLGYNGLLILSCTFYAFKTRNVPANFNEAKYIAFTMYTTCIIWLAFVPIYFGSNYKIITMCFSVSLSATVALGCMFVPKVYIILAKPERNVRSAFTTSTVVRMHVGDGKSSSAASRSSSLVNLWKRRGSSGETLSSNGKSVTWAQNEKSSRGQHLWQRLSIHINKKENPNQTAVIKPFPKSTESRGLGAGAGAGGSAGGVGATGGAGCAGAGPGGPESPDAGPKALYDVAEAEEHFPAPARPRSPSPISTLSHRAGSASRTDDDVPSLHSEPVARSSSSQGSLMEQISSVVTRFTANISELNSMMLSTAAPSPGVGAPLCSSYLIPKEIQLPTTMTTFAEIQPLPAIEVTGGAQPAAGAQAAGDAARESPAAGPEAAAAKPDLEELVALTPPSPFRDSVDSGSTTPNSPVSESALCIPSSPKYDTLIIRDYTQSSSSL
SMILES,Ki [1] [nM],melting point [°C]
"Cc1cc(C#Cc2cn(-c3ncccn3)c(C)n2)ccn1 [Compound 8, 2-[2-Methyl-4-(2-methyl-pyridin-4-ylethynyl)-imidazol-1-yl]-pyrimidine]",74,164 to 165
"Cc1cc(C#Cc2cn(-c3cccc(C(F)(F)F)c3)c(C)n2)ccn1 [Compound 7, 2-methyl-4-[2-methyl-1-(3-trifluoromethyl-phenyl)-1H-imidazol-4-ylethynyl]-pyridine]",24,
"Cc1cc(C#Cc2cn(-c3cccc(C4CC4)n3)c(C)n2)ccn1 [Compound 57, 2-cyclopropyl-6-[2-methyl-4-(2-methyl-pyridin-4-ylethynyl)-imidazol-1-yl]-pyridine]",16,
"COc1ccnc(-n2cc(C#Cc3ccnc(C)c3)nc2C)n1 [Compound 22, 4-methoxy-2-[2-methyl-4-(2-methyl-pyridin-4-ylethynyl)-imidazol-1-yl]-pyrimidine]",18,
"Cc1cc(C#Cc2cn(-c3ccc(F)c(F)c3)c(C)n2)ccn1 [Compound 4, 4-[1-(3,4-difluoro-phenyl)-2-methyl-1H-imidazol-4-ylethynyl]-2-methyl-pyridine]",25,
"Cc1cc(C#Cc2cn(-c3cncc(C4CC4)n3)c(C)n2)ccn1 [Compound 56, 2-cyclopropyl-6-[2-methyl-4-(2-methyl-pyridin-4-ylethynyl)-imidazol-1-yl]-pyrazine]",27,
"Cc1cc(C#Cc2cn(-c3ccc(F)cc3)c(C)n2)ccn1 [Compound 1, 4-[1-(4-Fluoro-phenyl)-2-methyl-1H-imidazol-4-ylethynyl]-2-methyl-pyridine]",,151
"COc1cc(-n2cc(C#Cc3ccnc(C)c3)nc2C)ccn1 (as salt: HCl) [Compound 69, 2-Methoxy-4-[2-methyl-4-(2-methyl-pyridin-4-ylethynyl)-imidazol-1-yl]-pyridine]",,145 to 147
"Cc1cc(C#Cc2cn(-c3cccc(N(C)C)n3)c(C)n2)ccn1 [Compound 71, dimethyl-{6-[2-methyl-4-(2-methyl-pyridin-4-ylethynyl)-imidazol-1-yl]-pyridin-2-yl}-amine]",19,
"COc1cccc(-n2cc(C#Cc3ccnc(C)c3)nc2C)n1 [Compound 68, 2-Methoxy-6-[2-methyl-4-(2-methyl-pyridin-4-ylethynyl)-imidazol-1-yl]-pyridine]",18,
"Cc1cc(C#Cc2cn(-c3ccc4c(ccn4C)c3)c(C)n2)ccn1 [Compound 18, 1-methyl-5-[2-methyl-4-(2-methyl-pyridin-4-ylethynyl)-imidazol-1-yl]-1H-indole]",45,
"Cc1cc(C#Cc2cn(-c3nccc(C(F)(F)F)n3)c(C)n2)ccn1 [Compound 21, 2-[2-methyl-4-(2-methyl-pyridin-4-ylethynyl)-imidazol-1-yl]-4-trifluoromethyl-pyrimidine]",17,
"Cc1cc(C#Cc2nc(C)n(-c3ccc(F)cc3)c2C=O)ccn1 [Compound 89, 3-(4-Fluoro-phenyl)-2-methyl-5-(2-methyl-pyridin-4-ylethynyl)-3H-imidazole-4-carbaldehyde]",65,
"Cc1cc(C#Cc2nc(C)n(-c3ccc(F)cc3)c2C)ccn1 [Compound 88, 4-[1-(4-Fluoro-phenyl)-2,5-dimethyl-1H-imidazol-4-ylethynyl]-2-methyl-pyridine]",33,
"Cc1cc(C#Cc2cn(-c3nccc(Cl)n3)c(C)n2)ccn1 [Compound 29, 4-chloro-2-[2-methyl-4-(2-methyl-pyridin-4-ylethynyl)-imidazol-1-yl]-pyrimidine]",25,
"Cc1cc(C#Cc2cn(-c3ccc(Cl)c(Cl)c3)c(C)n2)ccn1 [Compound 2, 4-[1-(3,4-Dichloro-phenyl)-2-methyl-1H-imidazol-4-ylethynyl]-2-methyl-pyridine hydrochloride]",18,
